According to patent US4665085A, “Amidines, preparation process and therapeutical application thereof” (Laboratoires Chauvin-Blache, priority 1983, dated 1987):
pIC50: −log10 of the molar value.

Legend:
[1] = molecular target: T1, platelet α2 adrenergic receptors (Oryctolagus cuniculus, UniProt Q5ZQK3); test: Affinity for platelet α2 adrenergic receptors (inhibition of specific linking of tritiated dihydroergocryptine); assay type: binding; details: rabbit platelet membranes, tritiated DHE 7 nM, 30 minutes at 25° C.; read-out: CE50 (dosage required to inhibit 50 percent of the linking of tritiated DHE)
T1 construct: from tissue; host or cells: platelet membranes from blood of male New Zealand albino rabbits
T1 sequence (Q5ZQK3 1-451): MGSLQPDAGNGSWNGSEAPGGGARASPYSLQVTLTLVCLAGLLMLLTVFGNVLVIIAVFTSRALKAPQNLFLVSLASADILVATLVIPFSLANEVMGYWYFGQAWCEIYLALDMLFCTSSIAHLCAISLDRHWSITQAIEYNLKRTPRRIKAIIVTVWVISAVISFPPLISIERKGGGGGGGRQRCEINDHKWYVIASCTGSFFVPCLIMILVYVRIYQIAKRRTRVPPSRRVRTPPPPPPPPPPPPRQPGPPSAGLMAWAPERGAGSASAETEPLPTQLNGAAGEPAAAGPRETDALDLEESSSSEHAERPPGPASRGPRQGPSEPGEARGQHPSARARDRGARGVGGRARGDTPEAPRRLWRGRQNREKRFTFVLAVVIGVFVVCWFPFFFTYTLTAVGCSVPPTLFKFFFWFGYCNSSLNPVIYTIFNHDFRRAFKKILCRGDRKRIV
Method: 1. Affinity for platelet α2 adrenergic receptors
The compounds of the formula (I) were tested on the platelet adrenergic receptor of rabbit which is exclusively of α2 type (MICHEL T., Nature, 288, (5792) 709, 1980).
The affinity of said compounds for the α2 receptors is determined by measuring the inhibition of the specific linking of tritiated dihydroergocryptine (DHE) by the test compounds.
The rabbits used are male New-Zealand albino rabbits
Blood is taken by the intracardiac route, over ACD (an anticoagulant consisting of an aqueous solution containing 0.27 g citric acid, 0.5 g trisodium citrate and 0.02 g glucose per 20 ml water) at a rate of 1 volume ACD per 6 volumes blood.
The blood is centrifuged 10 minutes at 280 g and the supernatant (PRP) is collected. The PRP is centrifuged 15 minutes at 2000 g.
The platelet sediment is washed twice with buffer I (Tris 50 mM, NaCl 150 mM, EDTA 20 mM, pH 7.5) and is then re-suspended in buffer II (Tris 50 mM, EDTA 5 mM, pH 7.5).
This suspension is frozen at -40° C., and is then defrosted; the procedure is repeated twice. The suspension is then homogenized, after which it is centrifuged 10 minutes at 40,000 g, at 4° C.
The centrifugation sediment is washed with buffer II and is then re-suspended in this same buffer so that the final protein concentration is of the order of 1.5 mg/ml.
The inhibition tests are effected in a final volume of 0.2 ml of buffer II containing the tritiated DHE (7 nM) and varying concentrations of test compound.
The reaction is initiated by adding 0.2 mg proteins and is continued for 30 minutes at 25° C.
The incubation is terminated by adding 2 ml buffer II and by rapidly filtering this mixture in vacuo, through Whatman GF/C filters. The filters are rapidly washed with buffer II and the radioactivity bound to the filter is determined by liquid scintillation.
The dosage required to inhibit 50 percent of the linking of the […] DHE (CE50) is calculated for each of the test compounds.

[2] = test system: male Swiss mice (NMRI-Han); test: Acute toxicity by the intraperitoneal route; assay type: in vivo; details: observation time 48 hours
Method: The mice used are male Swiss mice (NMRI-Han) with an average body weight of 25 g.
The acute toxicity investigation was effected by the intraperitoneal route.
The compounds were injected in aqueous solution, at three dosage levels: 50, 100 and 200 mg/kg.
Table below gives the results obtained with compounds of the formula (I), after an observation time of 48 hours.
The results are expressed as number of dead animals vs. the total number of animals treated.

male New-Zealand rabbits = test: Hypotensive activity in rabbits after topical administration (intraocular pressure); assay type: in vivo; details: rabbit; for t (time corresponding to the maximum effect) / Δmax (maximum decrease of the intraocular pressure with respect to the basic value at time zero) / Duration of the effect: 0.5% isotonic aqueous solution instilled in an eye; for effect on pressure in the contralateral eye (evidence of an action at the level of the central nervous system): same experimental conditions (topical instillation)
Method: 2. Hypotensive activity in rabbits, after topical administration
The experiments were conducted using male New-Zealand rabbits (2 kg body weight) given "ad libitum" food and drink.
The animals are given a few days to get accustomed to the animal house, are conditioned to stabling in restraining boxes, and to the ocular pressure determinations, in order to prevent pressure deviations induced by stress and handling.
The intraocular pressure is determined with an ALCON aplanation pneumatonograph, standardized by means of an isolated cornea of rabbit, under water pressure.
The compounds are tested in isotonic aqueous solution, at pH 7.25 μl of an 0.5% solution are instilled in an eye, and the intraocular pressure is determined as a function of time.
Table below gives the maximum decrease of the intraocular pressure (Δ max) with respect to the basic value at time zero (time of instillation), the time corresponding to this maximum effect (t), and the total duration of the effect.

Row | Compound | pIC50 [1] | number of dead animals vs. total number of animals treated ([2]; 100 mg/kg) | number of dead animals vs. total number of animals treated ([2]; 200 mg/kg) | t (time corresponding to the maximum effect) (male New-Zealand rabbits) | Δmax (maximum decrease of the intraocular pressure with respect to the basic value at time zero) (male New-Zealand rabbits) | Duration of the effect (male New-Zealand rabbits) | effect on pressure in the contralateral eye (evidence of an action at the level of the central nervous system) (male New-Zealand rabbits) | number of dead animals vs. total number of animals treated ([2]; 50 mg/kg)
1 | Cc1cc(O)ccc1C=NNC(=N)N [Compound 7] | 5.20 | 0/3 | 3/3 | 60 mn | -0.25 ± 1.7 mm Hg | – | – | –
2 | Cc1cc(N)ccc1C=NNC(=N)N [Compound 8] | 4.49 | 0/3 | 3/3 | – | – | – | – | –
3 | Cc1cc(O)ccc1C=NNC1=NCCN1 [Compound 1] | 5.52 | 0/3 | 0/3 | 60 mn | -3.12 ± 2.21 mm Hg | 360 mn | – | –
4 | Cc1cc(N)ccc1C=NNC1=NCCN1 [Compound 2] | 5.00 | 0/3 | 3/3 | 60 mn | -4.12 ± 0.95 mm Hg | 300 mn | – | –
5 | Clc1cccc(Cl)c1N=C1NCCN1 [clonidine, 2,6-dichloro-anilino-2-imidazoline, reference compound] | – | – | – | – | – | – | concomitant decrease of the pressure in the contralateral eye | –
6 | CC(=NNC(=N)N)c1ccc(O)cc1C [Compound 10] | 4.96 | 0/3 | 2/3 | – | – | – | – | –
7 | COc1cc(O)ccc1C(C)=NNC(=N)N [Compound 11] | 5.89 | – | – | – | – | – | – | –
8 | CC(=NNC1=NCCN1)c1ccc(O)cc1C [Compound 3] | 5.25 | 0/3 | 3/3 | 30 mn | -1.83 ± 1 mm Hg | 300 mn | – | –
9 | COc1cc(O)ccc1C(C)=NNC1=NCCN1 [Compound 6] | 5.60 | – | – | – | – | – | – | –
10 | COc1cc(O)ccc1C=NNC(=N)N [Compound 9] | 5.10 | 3/3 | 3/3 | – | – | – | – | 0/3
11 | Clc1cccc(Cl)c1C=NNC1=NCCN1 [(2,6-dichlorobenzylidene-hydrazino)-2-imidazoline, reference compound] | – | – | – | – | – | – | concomitant decrease of the pressure in the contralateral eye | –
12 | COc1cc(O)ccc1C=NNC1=NCCN1 [Compound 4] | 5.52 | 0/3 | 0/3 | 60 mn | -2.5 ± 0.57 mm Hg | 400 mn | – | –
13 | COc1cc(N)ccc1C=NNC1=NCCN1 [Compound 5] | 4.85 | 0/3 | – | 120 mn | -3.9 ± 0.5 mm Hg | 360 mn | – | –
